Measured values: patent US11286288B2, “Pharmaceutical compound” (VALLAURIX PTE. LTD., priority 2015, dated 2022)
Each block holds one substance with its values, some of them ahead of it.

What was measured:
Assay type in all cases: cell-based
tyrosinase = test: Tyrosinase activity (3H-tyrosine) in human melanocyte culture 1750; details: Test 4, melanocytes 1750, six days treatment; concentration not given
Protocol: Compounds 1, 2, 3 and 4 were tested in various separate tests and using 2 different human melanocyte cultures, coded 1750 and 1753, that were derived from 2 different donors expressing functional MC1R. The melanocytes were plated at a density of 0.3*10^6 cells onto 60 mm dishes (triplicate dishes/group). After 48 hours, the melanocytes were treated every other day for a total of six days with different doses of each compound. Controls without compound were included in all experiments. In some experiments reference compound NDP-MSH was included. On treatment day 5, ^3H-labeled tyrosine, the substrate for tyrosinase, was added and 24 hours later, the supernatant was saved to be assayed for tyrosinase activity as described by Suzuki et al (see example 3). Duplicate samples from each were assayed, with triplicate dishes included in each group. Cell number in each dish was counted, and tyrosinase activity was expressed as dpm/10^6 cells and as % of the control. Tests results between separate tests cannot be compared due to differences in melanocyte cultures and to different passage number. Statistical analysis was carried out using ANOVA followed by Newman Kuels test.
It will be understood that this tyrosinase activation test relates to a late event after MC1R activation, compared to the earlier secondary messenger effect of the above cAMP test. As pointed out above, activity of tyrosinase requires days of treatment. Following are the results comparing the compounds in the test indicated: […]

MC1R [1] = molecular target: T1, MC1R (Homo sapiens, UniProt Q01726); test: cAMP radioimmunoassay in human melanocyte culture 1753
T1 construct: human melanocyte cultures, coded 1750 and 1753, that were derived from 2 different donors expressing functional MC1R; endogenous in cells; host or cells: primary human melanocyte cultures 1750 and 1753 (two donors)
Protocol: Compounds 1, 2, 3 and 4 were tested in various separate tests and using 2 different human melanocyte cultures, coded 1750 and 1753, that were derived from 2 different donors expressing functional MC1R. The melanocytes were plated at a density of 0.3*10^6 cells/well. After 48 hours, the melanocytes were treated with the different compound concentrations for 1 hour. Controls without compound were included in all experiments. […] The reaction was stopped by addition of 50 μl N HCl and the supernatant in each well was used to measure cAMP using a radioimmunoassay as described by Suzuki 1996 (Suzuki I, Cone R D, Im S, Nordlund ii, Abdel-Malek Z: “Binding of melanotropic hormones to the MC1 receptor on human melanocytes stimulates proliferation and melanogenesis”. Endocrinology 137: 1627-1633, 1996). Duplicate samples from each well were assayed with triplicate wells included in each compound group. The results from different tests cannot be compared due to differences in melanocyte cultures and to different passage number. The mean of 6 cAMP measurements per group was expressed as % of the control group. Statistical analysis was carried out using ANOVA followed by Newman Kuels test. In some cases, unpaired t-test was used.

MC1R [2] = molecular target: T1, MC1R; test: cAMP radioimmunoassay in human melanocyte culture 1750
Protocol: Compounds 1, 2, 3 and 4 were tested in various separate tests and using 2 different human melanocyte cultures, coded 1750 and 1753, that were derived from 2 different donors expressing functional MC1R. The melanocytes were plated at a density of 0.3*10^6 cells/well. After 48 hours, the melanocytes were treated with the different compound concentrations for 1 hour. Controls without compound were included in all experiments. In some experiments reference compound NDP-MSH was included. The reaction was stopped by addition of 50 μl N HCl and the supernatant in each well was used to measure cAMP using a radioimmunoassay as described by Suzuki 1996 (Suzuki I, Cone R D, Im S, Nordlund ii, Abdel-Malek Z: “Binding of melanotropic hormones to the MC1 receptor on human melanocytes stimulates proliferation and melanogenesis”. Endocrinology 137: 1627-1633, 1996). Duplicate samples from each well were assayed with triplicate wells included in each compound group. The results from different tests cannot be compared due to differences in melanocyte cultures and to different passage number. The mean of 6 cAMP measurements per group was expressed as % of the control group. Statistical analysis was carried out using ANOVA followed by Newman Kuels test. In some cases, unpaired t-test was used.

T1 sequence (Q01726 whole entry): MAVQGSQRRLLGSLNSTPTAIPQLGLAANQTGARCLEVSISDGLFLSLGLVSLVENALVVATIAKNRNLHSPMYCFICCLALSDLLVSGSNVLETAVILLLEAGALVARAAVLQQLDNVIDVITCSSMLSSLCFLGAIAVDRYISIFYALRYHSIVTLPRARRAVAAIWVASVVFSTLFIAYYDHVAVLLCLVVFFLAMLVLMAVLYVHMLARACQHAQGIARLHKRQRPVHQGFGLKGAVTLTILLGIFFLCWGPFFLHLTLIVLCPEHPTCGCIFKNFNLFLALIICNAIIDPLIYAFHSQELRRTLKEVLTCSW

tyrosinase activity, efficacy, % of the control (tyrosinase): 178%
cAMP, highest overall efficacy value, % of the control group (MC1R [1]; Test 2, melanocytes 1753, at 10^-7 M, 1 hour treatment, p<0.05): 431%
Substance: (C2H5)3N—CH2—CO-Nle-Glu-His-D-Phe-Arg-Trp-NH2 [Compound 1]

Substance: (C2H5)3N—CH2—CO-Nle-Glu-His-D-Phe-homoArg-Trp-NH2 [Compound 3]
dose at which maximum effect on cAMP was achieved (MC1R [1]; Test 2, melanocytes 1753, p<0.05 vs control): 10^−9 M
cAMP, highest overall efficacy value, % of the control group (MC1R [2]; Test 1, melanocytes 1750, at 10^-7 M, 1 hour treatment, p<0.05): 327%

tyrosinase activity, efficacy, % of the control (tyrosinase): 171%
lowest dose showing cAMP efficacy statistically different from control (MC1R [1]; Test 2, melanocytes 1753, p<0.05): 10^−11 M
dose at which maximum effect on cAMP (vs control) was achieved (MC1R [2]; Test 1, melanocytes 1750, 1 hour treatment, p<0.05 vs control): 10^−8 M
Substance: (CH3)3N—(CH2)3—CO-Nle-Glu-His-D-Phe-Arg-Trp-NH2 [Compound 2]

cAMP, highest efficacy, % of the control group (MC1R [1]; Test 3, melanocytes 1753, at 10^-7 M, 1 hour treatment, p<0.05): 253%
Substance: (CH3)3N—(CH2)3—CO-Nle-Glu-His-D-Phe-homoArg-Trp-NH2 [Compound 4]

tyrosinase activity, efficacy, % of the control (tyrosinase): 166%
Substance: NDP-MSH [reference compound]
